Like-named read-outs stand apart in the source and are kept apart here.
Target: T1, HDM2 (Homo sapiens, UniProt Q00987)
T1 construct: Thioredoxin (N); made in house; host or cells: E. coli strain BL21(DE3)Rosetta
Experiment: HDM2 FRET assay (inhibition of binding of FITC labeled p53-pocket peptide to HDM2)
Details: for IC50: read-out: FRET IC50; for inhibition at 1 µM: read-out: inh. at 1000 nM (FRET)
In short: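 Compounds were tested in 10-point serial dilution against 0.5 nM recombinant HDM2 binding 3 nM fluorescein-labeled p53-pocket peptide. Detection used 0.25 nM terbium cryptate anti-6xHis antibody in PBS buffer containing 0.01% BSA and 0.01% Tween-20.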

[1] = 0.5 nM HDM2 (residues 17 to 125), 3nM peptide, two hour incubation at room temperature

T1 sequence (Q00987 17-125): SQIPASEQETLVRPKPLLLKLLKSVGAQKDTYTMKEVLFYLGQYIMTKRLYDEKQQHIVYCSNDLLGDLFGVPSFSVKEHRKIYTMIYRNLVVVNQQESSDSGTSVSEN

## C[C@H]1CC[C@H](Cn2c(N3CCO[C@@H]4CCC[C@H]43)nc3nc(-c4noc(=O)[nH]4)nc(-c4cncc(Cl)c4)c32)CC1 [Example 16.87, 3-{6-(5-chloropyridin-3-yl)-8-[(4aR,7aR)-hexahydrocyclopenta [b][1,4]oxazin-4(4aH)-yl]-7-[(trans-4-methylcyclohexyl)met52hyl]-7H-purin-2-yl}-1,2,4-oxadiazol-5(4H)-one]
[1]
  IC50: 1.56 nM

## C[C@@H](Nc1nc(-c2noc(=O)[nH]2)nc2nc(C(C)(C)O)n(C[C@H]3CC[C@H](C)CC3)c12)C1CCC1 [Example 22.44, 3-(6-{[(1R)-1-cyclobutylethyl]amino}-8-(1-hydroxy-1-methylethyl)-7-[(trans-4-methylcyclohexyl)methyl] -7H-purin-2-yl)-1,2,4-oxadiazol-5(4H)-one]
Table 22
  IC50: 20.5 nM

## C[C@@H](Nc1nc(C(=O)O)nc2nc(-c3cc(C4CCC4)ccn3)n(C[C@H]3CC[C@H](C)CC3)c12)C1CCC1 [Example 15.18, 6-{[(1R)-1-cyclobutylethyl]amino}-8-(4-cyclobutylpyridin-2-yl)-7-[(trans-4-methylcyclohexyl)methyl]-7H-purine-2-carboxylic acid]
[1]
  IC50: 1.8 nM

## CC([C@H]1CC[C@H](C)CC1)n1c(N2CCC[C@H]2CF)nc2nc(-c3n[nH]c(=O)o3)nc(-c3cncc(Cl)c3)c21 (single isomer, unassigned) [Example 18.47]
Table 18
  IC50: 5.14 nM

## CC(C)c1ccnc(-c2nc3nc(-c4noc(=O)[nH]4)nc(N[C@H](C)C4CCC4)c3n2CC2CCC(C)(C)CC2)c1 [Example 18.9, (R)-3-(6-((1-cyclobutylethyl)amino)-7-((4,4-dimethylcyclohexyl)methyl)-8-(4-isopropylpyridin-2-yl)-7H-purin-2-yl)-1,2,4-oxadiazol-5(4H)-one]
Table 18
  IC50: 394 nM

## COC1(c2nc3nc(-c4noc(=O)[nH]4)nc(N[C@H](C)C4CCC4)c3n2C[C@H]2CC[C@H](C)CC2)CCC1 [Example 22.69, 3-(6-{[(1R)-1-cyclobutylethyl]amino}-8-(1-methoxycyclobutyl)-7-[(trans-4-methylcyclohexyl)methyl] -7H-purin-2-yl)-1,2,4-oxadiazol-5(4H)-one]
Table 22
  IC50: 4.54 nM

## C[C@@H]1CN(C)C(=O)CN1c1nc2nc(-c3noc(=O)[nH]3)nc(N[C@H](C)C3CCC3)c2n1C[C@H]1CC[C@H](C)CC1 [Example 11.120, (5R)-4-[6-{[(1R)-1-cyclobutylethyl]amino}-7-[(trans-4-methylcyclohexyl)methyl]-2-(5-oxo-4,5-dihydro-1,2,4-oxadiazol-3-yl)-7H-purin-8-yl]-1,5-dimethylpiperazin-2-one]
Table 11
  IC50: 5.57 nM

## Cc1cccc(Nc2nc(C(=O)O)nc3nc(-c4cccc(C)c4)n(Cc4ccc(C(F)(F)F)cc4)c23)c1 [Example 6.94, 8-(3-methylphenyl)-6-[(3-methylphenyl)amino]-7-[4-(trifluoromethyl)benzyl]-7H-purine-2-carboxylic acid]
  inhibition at 1 µM: 32%

## C[C@@H](Nc1nc(-c2noc(=O)[nH]2)nc2nc(N3CCOCC3c3ccc(Cl)cc3)n(C[C@H]3CC[C@H](C)CC3)c12)C1CCC1 (stereo partly drawn) [Example 11.99, 3-{8-[3-(4-chlorophenyl)morpholin-4-yl]-6-{[(1R)-1-cyclobutylethyl]amino}-7-[(trans-4-methylcyclohexyl)methyl]-7H-purin-2-yl}-1,2,4-oxadiazol-5(4H)-one]
Table 11
  IC50: 3.43 nM

## C[C@@H](Nc1nc(-c2nnc[nH]2)nc2nc(N3CCOC[C@H]3c3ccccc3)n(C[C@H]3CC[C@H](C)CC3)c12)C1CCC1 [Example 12.16, N-[(1R)-1-cyclobutylethyl]-7-[(trans-4-methylcyclohexyl)methyl]-8-[(3R)-3-phenylmorpholin-4-yl]-2-(4H-1,2,4-triazol-3-yl)-7H-purin-6-amine]
[1]
  IC50: 10.8 nM

## C[C@H]1CC[C@H](Cn2c(C3(F)CCCC3)nc3nc(-c4n[nH]c(=O)o4)nc(-c4cncc(Cl)c4)c32)CC1 [Example 23.40, 5-{6-(5-chloropyridin-3-yl)-8-(1-fluorocyclopentyl)-7-[(trans-4-methylcyclohexyl)methyl] -7H-purin-2-yl}-1,3,4-oxadiazol-2(3H)-one]
Table 23
  IC50: 15 nM

## C[C@@H]1COCCN1c1nc2nc(-c3n[nH]c(=O)o3)nc(-c3cccc(Cl)c3)c2n1C[C@H]1CC[C@H](C)CC1 [Example 16.7, 5-(6-(3-chlorophenyl)-7-(((trans)-4-methylcyclohexyl)methyl)-8-((R)-3-methylmorpholino)-7H-purin-2-yl)-1,3,4-oxadiazol-2(3H)-one]
[1]
  IC50: 14.5 nM

## Cc1cccc(-c2nc3nc(C(=O)O)nc(N(C)Cc4ccccc4)c3n2Cc2ccc(C(F)(F)F)cc2)c1 [Example 6.67, 6-[benzyl(methyl)amino]-8-(3-methylphenyl)-7-[4-(trifluoromethyl)benzyl]-7H-purine-2-carboxylic acid]
  inhibition at 1 µM: 30%

## Cc1cccc(-c2nc3nc(C(=O)O)nc(N4CCCC4CC(C)C)c3n2Cc2ccc(C(F)(F)F)cc2)c1 (centres unmarked) [Example 6.76, 8-(3-methylphenyl)-6-[2-(2-methylpropyl)pyrrolidin-1-yl]-7-[4-(trifluoromethyl)benzyl]-7H-purine-2-carboxylic acid]
  inhibition at 1 µM: 32%

## C[C@@H](Nc1nc(-c2noc(=O)[nH]2)nc2nc(-c3nccs3)n(C[C@H]3CC[C@H](C)CC3)c12)C1CCC1 [Example 15.12, 3-(6-(((R)-1-cyclobutylethyl)amino)-7-((trans-4-methylcyclohexyl)methyl)-8-(thiazol-2-yl)-7H-purin-2-yl)-1,2,4-oxadiazol-5(4H)-one]
[1]
  IC50: 6.28 nM

## C[C@@H](Nc1nc(N2CCC(C(=O)O)C2)nc2nc(N3CCOC[C@H]3c3ccccc3)n(C[C@H]3CC[C@H](C)CC3)c12)C1CCC1 (stereo partly drawn) [Example 13.9, 1-(6-{[(1R)-1-cyclobutylethyl]amino}-7-[(trans-4-methylcyclohexyl)methyl]-8-[(3R)-3-phenylmorpholin-4-yl]-7H-purin-2-yl)pyrrolidine-3-carboxylic acid]
[1]
  IC50: 199 nM

## CC(O)c1nc2nc(-c3noc(=O)[nH]3)nc(N[C@H](C)C3CCC3)c2n1C[C@H]1CC[C@H](C)CC1 (single isomer, unassigned) [Example 22.15]
Table 22
  IC50: 45.1 nM

## CCC1CCCCN1c1nc2nc(C(=O)O)nc(N[C@H](C)C3CCC3)c2n1C[C@H]1CC[C@H](C)CC1 (stereo partly drawn) [Example 11.52, 6-{[(1R)-1-cyclobutylethyl]amino}-8-(2-ethylpiperidin-1-yl)-7-[(trans-4-methylcyclohexyl)methyl]-7H-purine-2-carboxylic acid]
Table 11
  IC50: 3.43 nM

## CCCN(c1nc2nc(C(=O)O)nc(N[C@H](C)C3CCC3)c2n1Cc1ccc(C(F)(F)F)cc1)[C@@H](C)c1cccc(F)c1 [Example 10.26, 6-{[(1R)-1-cyclobutylethyl]amino}-8-{[(1S)-1-(3-fluorophenyl)ethyl](propyl)amino}-7-[4-(trifluoromethyl)benzyl]-7H-purine-2-carboxylic acid]
Table 10
  IC50: 1.94 nM

## CC(C)c1ccnc(-c2nc3nc(-c4nnn[nH]4)nc(N[C@H](C)C4CCC4)c3n2C[C@H]2CC[C@H](C)CC2)c1 [Example 12.8, N-[(1R)-1-cyclobutylethyl]-7-[(trans-4-methylcyclohexyl)methyl]-8-[4-(propan-2-yl)pyridin-2-yl]-2-(1H-tetrazol-5-yl)-7H-purin-6-amine]
[1]
  IC50: 1.91 nM

## C[C@@H]1OCCN(c2nc3nc(-c4n[nH]c(=O)o4)nc(-c4cccc(Cl)c4)c3n2C[C@H]2CC[C@H](C)CC2)[C@@H]1c1ccccc1 [Example 16.132, 5-{6-(3-chlorophenyl)-7-[(trans-4-methylcyclohexyl)methyl]-8-[(2S,3R)-2-methyl-3-phenylmorpholin-4-yl]-7H-purin-2-yl} - 1,3,4-oxadiazol-2(3H)-one]
[1]
  IC50: 89.5 nM

## Cc1cccc(-c2nc3nc(C(=O)O)nc(NC(C)C4CC4C)c3n2Cc2ccc(C(F)(F)F)cc2)c1 (centres unmarked) [Example 6.38, 6-{[1-(2-methylcyclopropyl)ethyl]amino}-8-(3-methylphenyl)-7-[4-(trifluoromethyl)benzyl]-7H-purine-2-carboxylic acid]
Table 6
  IC50: 530 nM

## Cc1ncc(Cl)cc1-c1nc(-c2noc(=O)[nH]2)nc2nc(N3CCOC[C@H]3c3ccccc3)n(C[C@H]3CC[C@H](C)CC3)c12 [Example 16.158, 3-{6-(5-chloro-2-methylpyridin-3-yl)-7-[(trans-4-methylcyclohexyl)methyl]-8-[(3R)-3-phenylmorpholin-4-yl]-7H-purin-2-yl}-1,2,4-oxadiazol-5(4H)-one]
[1]
  IC50: 0.601 nM

## CC1CCCCN1c1nc2nc(C(=O)O)nc(N[C@H](C)C3CCC3)c2n1C[C@H]1CC[C@H](C)CC1 (stereo partly drawn) [Example 11.29, 6-{[(1R)-1-cyclobutylethyl]amino}-7-[(trans-4-methylcyclohexyl)methyl]-8-(2-methylpiperidin-1-yl)-7H-purine-2-carboxylic acid]
Table 11
  IC50: 2.23 nM

## COc1cc(-c2nc(-c3noc(=O)[nH]3)nc3nc(N4CCOC[C@H]4c4ccccc4)n(C[C@H]4CC[C@H](C)CC4)c23)cc(Cl)n1 [Example 16.109, 3-{6-(2-chloro-6-methoxypyridin-4-yl)-7-[(trans-4-methylcyclohexyl)methyl]-8-[(3R)-3-phenylmorpholin-4-yl]-7H-purin-2-yl}-1,2,4-oxadiazol-5(4H)-one]
[1]
  IC50: 1.21 nM

## CC[C@H](Nc1nc2nc(-c3n[nH]c(=O)o3)nc(-c3cccc(Cl)c3)c2n1C[C@H]1CC[C@H](C)CC1)c1cccc(F)c1 [Example 16.76, 5-{6-(3-chlorophenyl)-8-{[(1S)-1-(3-fluorophenyl)propyl]amino}-7-[(trans-4-methylcyclohexyl)methyl]-7H-purin-2-yl}-1,3,4-oxadiazol-2(3H)-one]
[1]
  IC50: 13.2 nM

— patent EP2951180B1, “2,6,7,8 SUBSTITUTED PURINES AS HDM2 INHIBITORS” (Merck Sharp & Dohme Corp., priority 2013, dated 2014)
